This assay has as its target T1, HDAC6 (histone deacetylase 6) (Danio rerio, UniProt F8W4B7).
T1 construct: catalytic domain 2
T1 sequence (F8W4B7 440-798 limits assumed): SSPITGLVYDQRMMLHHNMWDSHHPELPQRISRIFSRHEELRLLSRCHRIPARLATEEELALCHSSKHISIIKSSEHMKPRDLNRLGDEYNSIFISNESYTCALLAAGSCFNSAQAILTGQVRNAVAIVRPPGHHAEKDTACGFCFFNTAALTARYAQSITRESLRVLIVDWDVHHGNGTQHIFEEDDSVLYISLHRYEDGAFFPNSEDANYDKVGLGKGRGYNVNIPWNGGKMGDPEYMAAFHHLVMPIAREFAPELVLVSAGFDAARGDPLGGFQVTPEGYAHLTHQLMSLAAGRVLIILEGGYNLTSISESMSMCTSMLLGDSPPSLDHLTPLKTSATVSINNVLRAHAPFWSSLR
Briefly: X-ray crystal structure ([…] Å) and ITC. Type of assay: binding.

Usually Kd stands for the constant that tells how readily two partners part at equilibrium. With `O=C(O)CCCC[C@@H](S)CCS` [(R)-dihydrolipoic acid], the Kd worked out at 350 nM.

The record behind these values is paper PMC10622836, “Crystal structure of histone deacetylase 6 complexed with (R)-lipoic acid, an essential cofactor in central carbon metabolism” (The Journal of Biological Chemistry, 2023).
